Key:
Cytochrome P450 2C9 = Cytochrome P450 2C9 (Homo sapiens, UniProt P11712); settings: bti-tn-5b1-4; also: in other assays of this panel Not Active means under 50% inhibition at 10 µM
[1] = molecular target: 5-hydroxytryptamine receptor 2B (Homo sapiens, UniProt P41595); assay type: cell membranes, CHO-K1, Membrane; settings: cho-k1; also: in other assays of this panel Not Active means under 50% inhibition at 10 µM
[2] = DRUGMATRIX: Phosphodiesterase PDE4 enzyme inhibition (substrate: [3H]cAMP + cAMP); settings: u-937; Not Active = under 50% inhibition at 10 µM
[3] = molecular target: T1, Alpha-1A adrenergic receptor (Rattus norvegicus, UniProt P43140); test: DRUGMATRIX: Alpha-1A adrenergic receptor radioligand binding (ligand: prazosin); assay type: cell membranes, Wistar, Submaxillary gland, Membrane; settings: Not Active = under 50% inhibition at 10 µM
T1 sequence (P43140 whole entry): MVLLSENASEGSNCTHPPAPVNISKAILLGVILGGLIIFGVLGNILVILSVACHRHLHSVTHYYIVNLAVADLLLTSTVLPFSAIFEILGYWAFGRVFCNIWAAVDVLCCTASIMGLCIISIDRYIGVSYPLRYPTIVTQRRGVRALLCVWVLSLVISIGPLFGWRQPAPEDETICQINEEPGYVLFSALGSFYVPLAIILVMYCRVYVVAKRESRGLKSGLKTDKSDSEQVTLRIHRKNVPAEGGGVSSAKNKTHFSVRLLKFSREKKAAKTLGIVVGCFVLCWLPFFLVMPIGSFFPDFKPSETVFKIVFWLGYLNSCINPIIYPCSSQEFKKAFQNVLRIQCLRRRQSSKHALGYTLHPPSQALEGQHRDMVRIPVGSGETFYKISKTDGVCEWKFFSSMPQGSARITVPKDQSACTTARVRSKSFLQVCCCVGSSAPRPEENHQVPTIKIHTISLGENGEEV

[4] = molecular target: T2, 5-hydroxytryptamine receptor 2C (Homo sapiens, UniProt P28335); test: DRUGMATRIX: Serotonin (5-Hydroxytryptamine) 5-HT2C radioligand binding (ligand: [3H] Mesulergine); assay type: cell membranes, CHO-K1, Membrane; settings: cho-k1; Not Active = under 50% inhibition at 10 µM
T2 sequence (P28335 whole entry): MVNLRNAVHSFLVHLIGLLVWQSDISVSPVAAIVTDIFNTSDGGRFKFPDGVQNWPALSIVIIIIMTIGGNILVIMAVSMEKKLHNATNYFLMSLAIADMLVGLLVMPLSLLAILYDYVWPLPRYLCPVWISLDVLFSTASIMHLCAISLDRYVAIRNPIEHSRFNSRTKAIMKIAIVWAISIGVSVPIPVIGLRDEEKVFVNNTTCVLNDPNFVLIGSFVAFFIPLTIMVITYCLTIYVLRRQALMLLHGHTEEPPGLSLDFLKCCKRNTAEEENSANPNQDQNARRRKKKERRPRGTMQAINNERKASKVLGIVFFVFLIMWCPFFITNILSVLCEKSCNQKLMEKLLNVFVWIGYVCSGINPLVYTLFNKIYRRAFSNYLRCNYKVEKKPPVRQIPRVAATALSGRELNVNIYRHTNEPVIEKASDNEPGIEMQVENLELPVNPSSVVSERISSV

[5] = DRUGMATRIX: Glutamate, Kainate radioligand binding (ligand: [3H] Kainic acid); assay type: cell membranes, Rattus norvegicus, Wistar, Brain, Membrane; settings: Not Active = under 50% inhibition at 10 µM

Chain of Cytochrome P450 2C9 (P11712 whole entry): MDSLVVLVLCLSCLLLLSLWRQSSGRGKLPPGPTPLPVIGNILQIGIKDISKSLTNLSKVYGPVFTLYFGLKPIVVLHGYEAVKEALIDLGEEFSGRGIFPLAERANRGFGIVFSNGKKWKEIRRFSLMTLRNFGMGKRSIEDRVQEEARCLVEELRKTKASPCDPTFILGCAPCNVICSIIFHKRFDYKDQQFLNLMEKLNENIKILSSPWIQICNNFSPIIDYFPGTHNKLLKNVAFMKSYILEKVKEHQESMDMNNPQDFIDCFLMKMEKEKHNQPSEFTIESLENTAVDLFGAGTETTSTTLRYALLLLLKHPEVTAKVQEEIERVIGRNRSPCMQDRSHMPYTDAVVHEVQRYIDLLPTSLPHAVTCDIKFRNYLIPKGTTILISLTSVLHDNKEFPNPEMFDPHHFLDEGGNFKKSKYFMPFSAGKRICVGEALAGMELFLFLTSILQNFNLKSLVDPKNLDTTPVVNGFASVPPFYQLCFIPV
Chain of 5-hydroxytryptamine receptor 2B (P41595 whole entry): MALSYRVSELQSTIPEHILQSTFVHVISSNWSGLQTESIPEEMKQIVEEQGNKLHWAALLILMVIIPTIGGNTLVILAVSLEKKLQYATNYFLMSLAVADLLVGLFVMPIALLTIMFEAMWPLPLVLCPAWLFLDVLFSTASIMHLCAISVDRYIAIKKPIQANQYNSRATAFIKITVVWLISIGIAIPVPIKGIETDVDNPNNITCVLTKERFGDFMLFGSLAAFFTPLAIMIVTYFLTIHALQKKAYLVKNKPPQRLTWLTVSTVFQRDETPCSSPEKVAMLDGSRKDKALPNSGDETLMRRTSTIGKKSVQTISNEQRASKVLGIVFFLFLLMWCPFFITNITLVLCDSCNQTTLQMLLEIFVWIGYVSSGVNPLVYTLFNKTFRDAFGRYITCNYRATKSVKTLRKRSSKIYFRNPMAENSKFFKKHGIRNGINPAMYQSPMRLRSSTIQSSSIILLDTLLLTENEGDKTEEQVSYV

C[C@]12CC[C@H]3[C@@H](CCC4=CC(=O)CC[C@@H]43)[C@@H]1CC[C@@H]2O [NANDROLONE]
Not Active: IC50 (Cytochrome P450 2C9) | Ki (Cytochrome P450 2C9) | IC50 [1] | IC50 [2] | Ki [2] | IC50 [3] | IC50 [4] | IC50 [5] | Ki [5]

CN(C)C(=O)Oc1cccc([N+](C)(C)C)c1.[Br-] [NEOSTIGMINE BROMIDE]
Not Active: IC50 (Cytochrome P450 2C9) | Ki (Cytochrome P450 2C9) | IC50 [1] | IC50 [2] | Ki [2] | IC50 [3] | IC50 [4] | IC50 [5] | Ki [5]

NC(=O)c1cccnc1 [NIACINAMIDE]
Not Active: IC50 (Cytochrome P450 2C9) | Ki (Cytochrome P450 2C9) | IC50 [1] | IC50 [2] | Ki [2] | IC50 [3] | IC50 [4] | IC50 [5] | Ki [5]

CS(=O)(=O)Nc1ccc([N+](=O)[O-])cc1Oc1ccccc1 [NIMESULIDE]
Not Active: IC50 (Cytochrome P450 2C9) | Ki (Cytochrome P450 2C9) | IC50 [1] | IC50 [2] | Ki [2] | IC50 [3] | IC50 [4] | IC50 [5] | Ki [5]

CN1C(=O)CN=C(c2ccccc2)c2cc([N+](=O)[O-])ccc21 [NIMETAZEPAM]
Not Active: IC50 (Cytochrome P450 2C9) | Ki (Cytochrome P450 2C9) | IC50 [1] | IC50 [2] | Ki [2] | IC50 [3] | IC50 [4] | IC50 [5] | Ki [5]

C[C@@H]1O[C@@H](O[C@H]2C[C@@H](O)[C@]3(CO)[C@H]4[C@H](O)C[C@]5(C)[C@@H](C6=CC(=O)OC6)CC[C@]5(O)[C@@H]4CC[C@]3(O)C2)[C@H](O)[C@H](O)[C@H]1O [OUABAIN]
Not Active: IC50 (Cytochrome P450 2C9) | Ki (Cytochrome P450 2C9) | IC50 [1] | IC50 [2] | Ki [2] | IC50 [3] | IC50 [4] | IC50 [5] | Ki [5]

NC(=O)N1c2ccccc2CC(=O)c2ccccc21 [OXCARBAZEPINE]
Not Active: IC50 (Cytochrome P450 2C9) | Ki (Cytochrome P450 2C9) | IC50 [1] | IC50 [2] | Ki [2] | IC50 [3] | IC50 [4] | IC50 [5] | Ki [5]

COc1ccnc(C[S+]([O-])c2nc3ccc(OC(F)F)cc3[nH]2)c1OC (stereo not drawn) [PANTOPRAZOLE]
Not Active: IC50 (Cytochrome P450 2C9) | Ki (Cytochrome P450 2C9) | IC50 [1] | IC50 [2] | Ki [2] | IC50 [3] | IC50 [4] | IC50 [5] | Ki [5]

CCc1ccc(CCOc2ccc(CC3SC(=O)NC3=O)cc2)nc1 (stereo not drawn) [PIOGLITAZONE]
Not Active: IC50 (Cytochrome P450 2C9) | Ki (Cytochrome P450 2C9) | IC50 [1] | IC50 [2] | Ki [2] | IC50 [3] | IC50 [4] | IC50 [5] | Ki [5]

CCCNC(C)C(=O)Nc1ccccc1C (stereo not drawn) [PRILOCAINE]
Not Active: IC50 (Cytochrome P450 2C9) | Ki (Cytochrome P450 2C9) | IC50 [1] | IC50 [2] | Ki [2] | IC50 [3] | IC50 [4] | IC50 [5] | Ki [5]

CCN(CC)CCNC(=O)c1ccc(N)cc1 [PROCAINAMIDE]
Not Active: IC50 (Cytochrome P450 2C9) | Ki (Cytochrome P450 2C9) | IC50 [1] | IC50 [2] | Ki [2] | IC50 [3] | IC50 [4] | IC50 [5] | Ki [5]

CCN(CC)CCCC(C)Nc1c2ccc(Cl)cc2nc2ccc(OC)cc12 (stereo not drawn) [QUINACRINE]
Not Active: IC50 (Cytochrome P450 2C9) | Ki (Cytochrome P450 2C9) | IC50 [1] | IC50 [2] | Ki [2] | IC50 [3] | IC50 [4] | IC50 [5] | Ki [5]

— ChEMBL document CHEMBL1909046, “DrugMatrix in vitro pharmacology data”
